{"source": "patent US7652071B2", "about": "“Penetration of active substances into cells and organs” (Alpha-Biocare GmbH, priority 2003, dated 2010)", "tested_on": "Angiostrongylus cantonensis", "test": "Detection of worm stages in the brain of Wistar rats experimentally infected with Angiostrongylus cantonensis after oral treatment", "type": "in vivo", "description": "Each rat was infected with precisely 60 L3 larvae. From day 5 post-infection onwards, mebendazole was administered once daily on three successive days at the dosage rates and in the formulations stated. The worms were detected on day 21 post-infection.", "data": [{"smiles": "COC(=O)Nc1nc2ccc(C(=O)c3ccccc3)cc2[nH]1", "note": "[Mebendazole, mebendazole]", "values": [{"measurement": "Worm detection in the brain", "setting": "aqueous suspension, mebendazole 10 mg/kg body weight oral, once daily on three successive days from day 5 post-infection, worms detected day 21, % of infection control (55 worms = 100%)", "value": 98.2, "unit": "%"}, {"measurement": "Worm reduction in the brain", "setting": "mebendazole with the aid of the carrier system, at a more than 30-fold reduced mebendazole dose", "value": "significant worm reduction in the brain"}]}]}
